According to PubChem BioAssay AID330 (DTP/NCI, 2004):
Values joined by “and” are separate entries in the source; they are usually repeats but may differ in a detail not shown here. Identical values can stand only once. Toxic doses and inconclusive results are not listed. Rule for the calls: active = survival T/C of 150% or more; inactive = T/C below 125% in these data.

Tested on: P388 leukemia ip, CD2F1 mice, survival T/C
Experiment: NCI In Vivo Anticancer Drug Screen. Data for tumor model P388 Leukemia (intraperitoneal) in CD2F1 (CDF1) mice
Settings: endpoint: median survival time, higher = longer survival
Outline: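 Mice carrying the transplanted tumor received test compound or vehicle. Survival was recorded in each group, and the value is the treated-group measurement divided by that of the vehicle-treated control group.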

[1] = dose: 50.0 mg/kg/injection, schedule: Q01DX009 (ip), vehicle: saline
[2] = dose: 100.0 mg/kg/injection, schedule: Q01DX009 (ip), vehicle: saline
[3] = dose: 200.0 mg/kg/injection, schedule: Q01DX009 (ip), vehicle: saline
[4] = dose: 50.0 mg/kg/injection, schedule: Q01DX009 (ip), vehicle: Klucel (hydroxypropylcellulose) (HPC)
[5] = dose: 100.0 mg/kg/injection, schedule: Q01DX009 (ip), vehicle: Klucel (hydroxypropylcellulose) (HPC)
[6] = dose: 50.0 mg/kg/injection, schedule: Q01DX009 (ip), vehicle: saline with Tween-80
[7] = dose: 100.0 mg/kg/injection, schedule: Q01DX009 (ip), vehicle: saline with Tween-80
[8] = dose: 200.0 mg/kg/injection, schedule: Q01DX009 (ip), vehicle: saline with Tween-80
[9] = dose: 200.0 mg/kg/injection, schedule: Q01DX005 (ip), vehicle: saline with Tween-80
[10] = dose: 100.0 mg/kg/injection, schedule: Q04DX003 (ip), vehicle: saline with Tween-80
[11] = dose: 60.0 mg/kg/injection, schedule: Q01DX005 (ip), vehicle: saline
[12] = dose: 120.0 mg/kg/injection, schedule: Q01DX005 (ip), vehicle: saline
[13] = dose: 25.0 mg/kg/injection, schedule: Q01DX009 (ip), vehicle: saline with Tween-80
[14] = dose: 100.0 mg/kg/injection, schedule: Q04DX003 (ip), vehicle: saline sonified
[15] = dose: 200.0 mg/kg/injection, schedule: Q04DX003 (ip), vehicle: saline sonified
[16] = dose: 400.0 mg/kg/injection, schedule: Q04DX003 (ip), vehicle: saline sonified

Measured: T/C

CC(=O)OC1C=CC(=O)C1 (stereo not drawn)
inactive: dose: 7.5 mg/kg/injection, schedule: Q01DX005 (ip), vehicle: saline with Tween-80 122 % of control | dose: 15.0 mg/kg/injection, schedule: Q01DX005 (ip), vehicle: saline with Tween-80 116 % of control

CCN=C(N)N=C(N)N
inactive: dose: 25.0 mg/kg/injection, schedule: Q01DX001 (ip), vehicle: saline 108 % of control | dose: 50.0 mg/kg/injection, schedule: Q01DX001 (ip), vehicle: saline 87 % of control | [1] 100 % of control | dose: 100.0 mg/kg/injection, schedule: Q01DX001 (ip), vehicle: saline 87 % of control | [2] 107 % of control | [3] 98 % of control

CNC(=O)OCc1c(COC(=O)NC)c(C(F)(F)F)n2c1CCC2
inactive: [4] 117 % of control | [5] 116 % of control

O=C(CN1CCCCCC1)Nc1ccc2c(c1)C(=O)c1ccc(NC(=O)CN3CCCCCC3)cc1C2=O
inactive: dose: 50.0 mg/kg/injection, schedule: Q01DX005 (ip), vehicle: Klucel (hydroxypropylcellulose) (HPC) 89 % of control | dose: 50.0 mg/kg/injection, schedule: Q01DX005 (ip), vehicle: acid diluted with saline 97 % of control | dose: 100.0 mg/kg/injection, schedule: Q01DX005 (ip), vehicle: Klucel (hydroxypropylcellulose) (HPC) 89 % of control | dose: 100.0 mg/kg/injection, schedule: Q01DX005 (ip), vehicle: acid diluted with saline 99 % of control | dose: 200.0 mg/kg/injection, schedule: Q01DX005 (ip), vehicle: acid diluted with saline 100 % of control

Nc1nc2c(-c3ccc([N+](=O)[O-])cc3)nnn2c2ccccc12
inactive: [6] 95 % of control | [7] 86 % of control | [8] 95 % of control

COC(=O)C1CCCCOCCOCCOCCOCCOCCCCCC1=O (stereo not drawn)
inactive: dose: 50.0 mg/kg/injection, schedule: Q01DX005 (ip), vehicle: saline with Tween-80 102 % of control | dose: 100.0 mg/kg/injection, schedule: Q01DX005 (ip), vehicle: saline with Tween-80 102 % of control | [9] 94 % of control

CCSc1nc2ccc(CN3C(=O)c4ccccc4C3=O)cc2s1
inactive: [4] 92 % of control | [5] 89 % of control | dose: 200.0 mg/kg/injection, schedule: Q01DX009 (ip), vehicle: Klucel (hydroxypropylcellulose) (HPC) 86 % of control

Clc1ccc(C2=NNC(c3ccc(Cl)cc3)=NN2)cc1
inactive: dose: 60.0 mg/kg/injection, schedule: Q01DX005 (ip), vehicle: Klucel (hydroxypropylcellulose) (HPC) 103 % of control | dose: 120.0 mg/kg/injection, schedule: Q01DX005 (ip), vehicle: Klucel (hydroxypropylcellulose) (HPC) 102 % of control | dose: 240.0 mg/kg/injection, schedule: Q01DX005 (ip), vehicle: Klucel (hydroxypropylcellulose) (HPC) 98 % of control

Cc1ccc2ccccc2c1N(CC(=O)O)S(=O)(=O)c1ccccc1
inactive: [7] 100 % of control | [10] 100 % of control | [8] 110 % of control | dose: 200.0 mg/kg/injection, schedule: Q04DX003 (ip), vehicle: saline with Tween-80 100 % of control | dose: 400.0 mg/kg/injection, schedule: Q01DX009 (ip), vehicle: saline with Tween-80 120 % of control | dose: 400.0 mg/kg/injection, schedule: Q04DX003 (ip), vehicle: saline with Tween-80 109 % of control

CCN(CCO)CC1CCCC2CCCCC21 (stereo not drawn)
inactive: [11] 92 % of control | [12] 98 % of control

CC(C)(C=O)CNC(C)(C)C
inactive: [13] 110 % of control | [6] 100 % of control and 108 % of control | [7] 103 % of control and 105 % of control | [8] 91 % of control and 103 % of control

CC(C)SC(=S)S(=O)(=O)c1ccc(Cl)cc1
inactive: [13] 104 % of control and 110 % of control | [6] 107 % of control (2×) and 111 % of control | [7] 104 % of control and 114 % of control and 121 % of control

COc1ccc(C(Cc2ccccc2)C2(O)C(=O)NC(=O)NC2=O)cc1 (stereo not drawn)
inactive: dose: 60.0 mg/kg/injection, schedule: Q01DX005 (ip), vehicle: saline with Tween-80 103 % of control | dose: 120.0 mg/kg/injection, schedule: Q01DX005 (ip), vehicle: saline with Tween-80 99 % of control | dose: 240.0 mg/kg/injection, schedule: Q01DX005 (ip), vehicle: saline with Tween-80 98 % of control

Cc1ccc(NC(=O)Nc2cc(S(=O)(=O)O)ccc2Oc2ccccc2Cl)cc1
inactive: [14] 100 % of control | [15] 90 % of control | [16] 100 % of control

COCC/C(COC)=N\N=C(/CCOC)COC
inactive: [7] 109 % of control | [14] 104 % of control | [15] 100 % of control | [16] 104 % of control

[O-][n+]1cccc2c3ccccc3ncc21
inactive: dose: 6.25 mg/kg/injection, schedule: Q04DX002 (ip), vehicle: saline with Tween-80 94 % of control | dose: 12.5 mg/kg/injection, schedule: Q04DX002 (ip), vehicle: saline with Tween-80 108 % of control | dose: 25.0 mg/kg/injection, schedule: Q04DX002 (ip), vehicle: saline with Tween-80 100 % of control

CS(=O)CC1OC2OC3C(CO)OC(OC4C(CO)OC(OC5C(CO)OC(OC6C(CO)OC(OC7C(CO)OC(OC8C(CO)OC(OC1C(O)C2O)C(O)C8O)C(O)C7O)C(O)C6O)C(O)C5O)C(O)C4O)C(O)C3O (stereo not drawn)
inactive: [11] 100 % of control | [12] 106 % of control | dose: 240.0 mg/kg/injection, schedule: Q01DX005 (ip), vehicle: saline 104 % of control

CC(C)CCSC1=CC(=O)c2ccccc2C1=O
inactive: dose: 3.13 mg/kg/injection, schedule: Q01DX009 (ip), vehicle: saline with Tween-80 99 % of control | dose: 6.25 mg/kg/injection, schedule: Q01DX009 (ip), vehicle: saline with Tween-80 109 % of control | dose: 12.5 mg/kg/injection, schedule: Q01DX009 (ip), vehicle: saline with Tween-80 109 % of control | [13] 114 % of control

Cc1ccc(SNc2ccccc2)cc1
inactive: dose: 50.0 mg/kg/injection, schedule: Q04DX003 (ip), vehicle: saline with Tween-80 96 % of control | [10] 96 % of control

O=C(Nc1ccc2c(c1)Cc1ccccc1-2)c1cccc2ccccc12
inactive: dose: 0.75 mg/kg/injection, schedule: Q01DX005 (ip), vehicle: saline with Tween-80 96 % of control | dose: 1.5 mg/kg/injection, schedule: Q01DX005 (ip), vehicle: saline with Tween-80 96 % of control | dose: 3.0 mg/kg/injection, schedule: Q01DX005 (ip), vehicle: saline with Tween-80 89 % of control | [9] 90 % of control

C=C[C@H](c1ccccc1O)c1cc(O)c(OC)cc1OC
inactive: dose: 31.0 mg/kg/injection, schedule: Q01DX005 (ip), vehicle: Klucel (hydroxypropylcellulose) (HPC) 103 % of control | dose: 62.0 mg/kg/injection, schedule: Q01DX005 (ip), vehicle: Klucel (hydroxypropylcellulose) (HPC) 103 % of control | dose: 124.0 mg/kg/injection, schedule: Q01DX005 (ip), vehicle: Klucel (hydroxypropylcellulose) (HPC) 93 % of control | dose: 248.0 mg/kg/injection, schedule: Q01DX005 (ip), vehicle: Klucel (hydroxypropylcellulose) (HPC) 94 % of control

CN=Cc1ccc(OC)cc1
inactive: [13] 95 % of control | [6] 95 % of control | [7] 95 % of control

N#[N+]c1c(C(=O)O)[nH]c(=O)[nH]c1=O
inactive: dose: 16.0 mg/kg/injection, schedule: Q01DX009 (ip), vehicle: saline sonified 109 % of control | dose: 32.0 mg/kg/injection, schedule: Q01DX009 (ip), vehicle: saline sonified 104 % of control | dose: 64.0 mg/kg/injection, schedule: Q01DX009 (ip), vehicle: saline sonified 100 % of control | dose: 125.0 mg/kg/injection, schedule: Q01DX009 (ip), vehicle: saline sonified 104 % of control | dose: 250.0 mg/kg/injection, schedule: Q01DX009 (ip), vehicle: saline sonified 109 % of control | dose: 500.0 mg/kg/injection, schedule: Q01DX009 (ip), vehicle: saline sonified 104 % of control

O=C(COc1cccc(Cl)c1)NCc1ccc([N+](=O)[O-])cc1
inactive: dose: 100.0 mg/kg/injection, schedule: Q01DX001 (ip), vehicle: saline with Tween-80 100 % of control | dose: 200.0 mg/kg/injection, schedule: Q01DX001 (ip), vehicle: saline with Tween-80 90 % of control | dose: 400.0 mg/kg/injection, schedule: Q01DX001 (ip), vehicle: saline with Tween-80 100 % of control

O=C(O)C(O)C(Cl)(Cl)Cl (stereo not drawn)
inactive: dose: 25.0 mg/kg/injection, schedule: Q01DX009 (ip), vehicle: saline 107 % of control | [1] 96 % of control | [2] 88 % of control | [3] 91 % of control
